Laboratory results taken from PubChem BioAssay AID1508612.

Assay: passive permeability, PAMPA, ADME assay (AID 1508612)
Conditions: pH 7.4, 30.0 min, 50.0 µM

| Papp [×10⁻⁶ cm/s] | SMILES |
| --- | --- |
| 645 | CCN(CC)[S+](=O)([O-])c1cc(NC(=O)c2[nH]c(C)c(C(C)=O)c2C)ccc1OC |
| > 1000 | Cc1ccc2c(c1)[nH]c1c(N3CCN(Cc4ccccc4)CC3)ncnc12 |
| 580 | CCOc1ccc(CCNC(=O)c2ccccc2)cc1OCC |
| > 1000 | CC(C)COc1ccc(-c2ccc(=O)n(CC(=O)NCCc3ccccc3)n2)cc1 |
| 123 | O=C1CCC(CNC(=O)c2nc(-c3ccccc3)cc3[nH]ccc23)N1 (stereo not given) |
| > 1000 | C=CC(=O)Nc1cccc(Oc2nc(Nc3ccc(N4CCN(C)CC4)cc3)ncc2Cl)c1 |
| < 1 | CCOc1cc(CCNC(=O)c2cc3sccc3n2Cc2ccccc2)cc(F)c1OCC |
| 49.2 | Cc1cc(-c2nnc3n2CCCCC3)c(C)n1-c1cccnc1 |
| 107 | COc1ccc(Nc2nc(-c3ccncc3)nc3ccccc23)cc1F |
| 455 | CC(=O)Nc1cccc(-c2nc(-c3c(C)noc3C)cc3c2cc(-c2ccccc2)n3C)c1 |
| 37 | NC(=O)C1CCN(c2cc(-c3ccc4c(c3)OCCCO4)ncn2)CC1 |
| 55 | CCCN1CNc2c(c(=O)[nH]c(=S)n2Cc2ccc(OC)c(OC)c2)C1 |
| 389 | Cc1nsc(N)c1C(=O)N(C)CCOc1ccccc1Cl |
| 11.5 | Cc1ccc(/C=C/c2nc3ccccc3n2S(=O)(=O)c2cccc(Cl)c2)cc1 |
| 11.9 | COc1ccc(Nc2nnc(-c3ccc(C)c(S(=O)(=O)NCc4nc5ccccc5[nH]4)c3)c3ccccc23)cc1 |
| 383 | Cc1ccnc(N=C(N)N2CCN(c3cccc(C(F)(F)F)c3)CC2)c1 |
| 320 | O=S(=O)(Nc1nccs1)c1ccc(NCc2ccccc2)cc1 |
| 2.3 | O=C(Nc1ccc(S(=O)(=O)Nc2nccs2)cc1)c1ccnc2ccccc12 |
| 130 | O=C(C=Cc1cccnc1)NCCCCC1CCN(C(=O)c2ccccc2)CC1 |
| 123 | Cc1ccc(S(=O)(=O)Nc2cnccc2C(=O)Nc2ccccc2)cc1 |
| 613 | CCOC(=O)N1CCN(Cc2nc3cc(NC(=O)CC(C)C)ccc3n2C(C)C)CC1 |
| 1.8 | Cc1nn2c(c1-c1ccccc1-c1ccccc1)N(Cc1ccc(O)cc1)CCC2 |
| 1.62 | CCc1c(C)nc2c(-c3cnn(-c4cc(CO)ccn4)c3)c[nH]n2c1=O |
| 51.6 | O=C(NC(c1ccccc1)c1cc(Cl)c2cccnc2c1O)c1cccnc1 (stereo not given) |
| 676 | COC(=O)c1ccc(Nc2nc(-c3ccncc3)nc3ccccc23)cc1OC |
| 569 | Fc1ccc(CNc2nc(-c3ccncc3)nc3ccccc23)cc1F |

| Papp [×10⁻⁶ cm/s] | SMILES |
| --- | --- |
| 410 | Cc1noc(C)c1-c1ccc(Nc2nc(-c3ccncc3)nc3ccccc23)cc1F |
| 11 | O=C(CSc1nc(-c2ccc(F)cc2)[nH]c1-c1ccc(F)cc1)Nc1ccc2c(c1)OCCO2 |
| 748 | O=C(Nc1nc(-c2ccccc2)cs1)c1ccncc1NS(=O)(=O)c1ccc(F)cc1 |
| > 1000 | CCCNC(=O)c1ccc2c(c1)ncn2-c1cc(C)cc(C)c1 |
| 24.2 | O=C(Nc1nnc(-c2ccco2)o1)c1ccc(Cl)cc1 |
| 20.7 | Cc1ccc(NC(=O)N(Cc2cn(C)c3ccccc23)C2CCCCC2)cc1C |
| 11 | O=C(NC1CC1)C1CCCN1C(=O)c1cccc(-c2ccccn2)c1 (stereo not given) |
| < 1 | CN(C)c1ccc2cc(C(=O)N[C@@H](CCCN=C(N)CCl)C(=O)NCc3ccccc3)ccc2c1 |
| 1.79 | COc1cccc(CNc2ccc(S(=O)(=O)Nc3ccc(C4CCNCC4)cc3)cc2)c1O |
| 188 | CCn1nc(C2CCN(C(=O)CCO)CC2)nc1-c1cnc(N)c(-c2nnc(C(C)(C)C)o2)n1 |
| > 1000 | COc1cccc(CNc2ccc(S(=O)(=O)Nc3ccc(N4CCNCC4)cc3)cc2)c1O |
| 514 | CN(C)C(=O)NC1CCC(CCN2CCN(c3cccc(Cl)c3Cl)CC2)CC1 (stereo not given) |
| 950 | COC(=O)C1=C(C)NC(C)=C(C(=O)O[C@@H]2CCCN(Cc3ccccc3)C2)[C@@H]1c1cccc([N+](=O)[O-])c1 |
| > 1000 | O=C(Cc1ccc(-c2csc(Nc3ccc(F)cc3)n2)s1)N1CCOCC1 |
| > 1000 | COc1ccc(OC)c(-c2nc3c(C#N)c[nH]n3c2NC2CCCCC2)c1 |
| 16.2 | COC(=O)[C@]12CCC(C)(C)C[C@@H]1[C@@H]1C(=O)C=C3[C@@]4(C)C=C(C#N)C(=O)C(C)(C)[C@@H]4CC[C@@]3(C)[C@]1(C)CC2 |
| 641 | NC(=O)C1CCN(c2nc(-c3cccc4ccccc34)cs2)CC1 |
| 128 | CC1=C(C(=O)Nc2nncs2)C(c2ccccc2Br)N=C(Nc2nc3ccccc3o2)N1 (stereo not given) |
| 484 | O=C(C1CCN(c2nc(-c3ccc(Br)cc3)cs2)CC1)N1CCNCC1 |
| 56.5 | C[C@@H]1CC(=O)Nc2cccc(-c3cnn(C(C)(C)C)c3)c2N1 |
| 674 | COc1cccc(CC(=O)Nc2nc(-c3ccc4c(c3)CCN4C(=O)c3ccccc3C)c(C)s2)c1 |
| > 1000 | Cc1nnc(-c2ccccc2C(C)C)nc1NCc1ccc(-c2cccnc2)cc1 |
| 3.2 | O=S(=O)(c1ccc2ccccc2c1)N1CCN(c2nc(-c3cccs3)nc3ccccc23)CC1 |
| 113 | CCOC(=O)c1ccc(NC(=O)N2Cc3[nH]cnc3C[C@H]2c2nc(C(C)C)no2)cc1 |
| 897 | CCOc1ccc(CCNC(=O)c2cc3sccc3n2C(C)C)cc1OCC |
| > 1000 | Cc1cc(-c2nnc3n2CCCCC3)c(C)n1-c1ccc(Cl)c(Cl)c1 |

| Papp [×10⁻⁶ cm/s] | SMILES |
| --- | --- |
| 325 | Fc1ccc(Nc2nc(-c3ccncc3F)nc3ccccc23)cc1F |
| 5.2 | CCCCOc1ccccc1C(=O)Nc1ccccc1C(=O)Nc1cccc(S(=O)(=O)C(F)(F)F)c1 |
| 734 | CC(C)c1ccc(CC(=O)N2CCCc3ncc(C(=O)Nc4cccnc4)cc32)cc1 |
| 58.9 | Cc1noc(C)c1-c1csc(N2CCC(C(N)=O)CC2)n1 |
| 676 | Cc1cccc(N2CCN(C(=O)Cn3ncc4c3-c3ccccc3OC4)CC2)c1C |
| > 1000 | COc1ccc(-n2nc(C3CCCN(CC4CCCCC4)C3)[nH]c2=O)cc1 (stereo not given) |
| > 1000 | COc1ccc(-n2c(C)c(C(C)=O)c3ccccc32)cc1 |
| 68.9 | CC(=O)c1c(C)[nH]c(C(=O)Nc2cccc(S(=O)(=O)Nc3cccc(C#N)c3)c2)c1C |
| 209 | Cc1nc2sccn2c(=O)c1S(=O)(=O)Nc1ccc(N2CCN(S(C)(=O)=O)CC2)cc1 |
| 32 | O=C(NCCCO)c1ccc(-c2ncc3cnc(-c4cccc(F)c4)cn23)cc1 |
| > 1000 | Clc1ccc(-c2noc3ncnc(N4CCCCC4)c23)cc1 |
| 21.1 | Fc1cc(Nc2nc(-c3ccncc3)nc3ccccc23)ccc1-c1cc(F)c(F)c(F)c1 |
| 2.21 | O=[S+]([O-])(Nc1ccc(C2CCNCC2)cc1)c1ccc(NCc2ccc(Cl)cc2O)cc1 |
| 22.9 | N#Cc1nc(-c2cccc3ccccc23)oc1NCc1ccccc1 |
| > 1000 | Fc1cnc(-c2ccccc2C(F)F)nc1NCc1ccc(-n2ccnn2)cc1 |
| 297 | Nc1nc2c(s1)C(c1ccc(Br)cc1)CC(=O)N2 (stereo not given) |
| > 1000 | COC(=O)CNC(=O)c1nc(-c2ccc(F)cc2)c2ccccn12 |
| > 1000 | C[C@H]1CN(C(=O)Nc2ccc(F)cc2F)C[C@@H]1c1nc(-c2ccccc2)no1 |
| 133 | CCCCOc1ccc(CC(=O)NO)cc1 |
| 76.8 | O=C(N/N=C/c1ccc(Sc2ccccn2)o1)c1ccncc1 |
| > 1000 | CCN(CC)C(=O)c1sc2c(c1C)c(=O)n(Cc1ccccc1)c(=O)n2CC(=O)Nc1ccc(OC)cc1 |
| 406 | NC(=O)C1CCN(c2nc(-c3ccc4ccccc4c3)cs2)CC1 |
| 891 | O=C(Nc1ccccc1F)c1nc(S(=O)(=O)Cc2ccccc2F)ncc1Cl |
| 641 | COc1cc(/C=C(\C#N)c2nc3ccccc3[nH]2)ccc1OCc1ccc(F)cc1 |
| 902 | COc1ccc2c(c1)N(C[C@H](C)CN(C)C)c1ccccc1S2 |
| > 1000 | CN1C(=O)c2ccccc2[S@](=O)c2ccc(C(=O)NCc3ccc(Br)cc3)cc21 |

| Papp [×10⁻⁶ cm/s] | SMILES |
| --- | --- |
| 197 | O=C(Cc1ccc(O)cc1)N1CC(CNc2ccccc2)C2(C1)CN(c1ccccc1)C2 (stereo not given) |
| > 1000 | CCCc1cc(=O)oc2c3c(c4c(c12)OC(C)(C)C=C4)OC(C)C(C)C3O (stereo not given) |
| 517 | NC(=O)C1CCN(c2nc(-c3ccccc3Cl)cs2)CC1 |
| 1.5 | O=C(Cc1ccc(Cl)c(Cl)c1)Nc1ccc(S(=O)(=O)Nc2cncnc2)cc1 |
| 407 | O=S(=O)(c1ccc(Cl)cc1)c1ccccn1 |
| 688 | NC(=O)C1CCN(c2ncc(-c3ccc(Br)cc3)s2)CC1 |
| 8.8 | O=C1Nc2ccccc2C1Cc1cc(Cl)c(O)c(Cl)c1 (stereo not given) |
| > 1000 | Cc1cc(C)nc(NC(=S)N2CCN(c3ccc(F)cc3F)CC2)c1 |
| 226 | O=C(Cc1cccs1)NCc1nnc2ccc(-c3ccccc3)nn12 |
| 8 | CCC(CC)(NC(=O)C(C)C)C(=O)N[C@@H](CCCN=C(N)N)C(=O)NC1(C(=O)NC(c2ccc(F)cc2)c2ccc(F)cc2)CCCC1 |
| 176 | O=C1CCCC2=C1C1(CCS(=O)(=O)C1)N=C(Nc1nc3ccccc3o1)N2 (stereo not given) |
| > 1000 | COc1cccc(-c2nc(-c3cc4cc(OC)ccc4[nH]c3=O)no2)c1 |
| 14 | S=C(NCCCc1cnc[nH]1)NCCCN(Cc1ccc(Cl)c(Cl)c1)c1ccc(Br)cn1 |
| > 1000 | Cc1cc(C)c(CNC(=O)c2nc(-c3cccc(CO)c3)cc3c2ccn3C)c(=O)[nH]1 |
| > 1000 | COc1cccc(Cn2c(=O)n(-c3cccc(Cl)c3C)c(=O)c3c4c(sc32)CN(C(C)=O)CC4)c1 |
| 16.9 | O=C(Cc1ccc2ccccc2c1)Nc1ccc(S(=O)(=O)Nc2nccs2)cc1 |
| > 1000 | CC(C)n1cc(-c2ccc3c(c2)N(C)CC3)c2c(NS(=O)(=O)c3ccn(C)n3)ccnc21 |
| 866 | Cc1ccnc(NC(=S)N2CCN(c3cccc(C(F)(F)F)n3)CC2)c1 |
| > 1000 | Brc1ccc(-c2csc(N3CCNCC3)n2)cc1 |
| 507 | C#CCNC(=O)c1nc(-c2cccnc2)c2ccccn12 |
| > 1000 | Cc1cnc(-c2ccccc2C(F)F)nc1NCC1CN(c2cnccn2)C1 |
| 490 | CC[C@H]1CN(C)[C@H]2Cc3c([nH]c4ccccc34)C(=O)C[C@H]1[C@H]2C(=O)OC |
| 762 | CCNC(=O)Nc1ncc(-c2cc(-c3c(C)cc(OC)cc3C)nc(-c3cnccn3)n2)s1 |

| SMILES | Papp [×10⁻⁶ cm/s] |
| --- | --- |
| COc1ccc2c(c1)/C(=C/c1cnc[nH]1)C(=O)N2 | 220 |
| CCOc1ccc(CCNC(=O)c2cc3ccccc3n2CCN2CCOCC2)cc1OCC | > 1000 |
| O=c1c(-c2cccs2)ccc2n1C[C@H]1C[C@@H]2CN(C2CCOCC2)C1 | 460 |
| C[C@]12CC[C@@H]3[C@H](CCC4=CC(=O)CC[C@]43C)[C@]1(O)CC[C@@]2(O)C(=O)CO | 30.8 |
